US9399645B2, “Inhibitors of HIV replication” (Boehringer Ingelheim International GmbH, priority 2011, dated 2016)

How the values were obtained:
[1] = Caco-2 Permeability Assay; format: in vitro ADME; conditions: human, apparent permeability A to B, compound at 10 μM, apical buffer pH 6.0, basolateral buffer pH 7.4, read-out: Papp (cm/sec, *10^−6)
Excerpt: Caco-2 Permeability Assay Caco-2 cells are purchased from Cell Culture Services as frozen instant cells at a concentration of 1*10^7 cells/vial. DMEM+glutamax-I culture media is purchased from Gibco (10569). Fetal bovine serum (FBS) is purchased from HyClone (SH30396.03). Pennicilin/Streptomycin antibiotics are purchased from Gibco (15140). MEM non-essential amino acids are purchased from Gibco (11140). Hank's balanced salt solution (HBSS) is purchased from Gibco (14025). Bovine serum albumin (BSA) is purchased from Sigma-Aldrich (A7906). MES low moisture is purchased from Sigma-Aldrich (M3671). HEPES is purchased from Sigma-Aldrich (H3375). Dimethyl Sulfoxide (DMSO) is purchased from EMD (MX1457-6). Complete DMEM media is prepared by adding 1 L of FBS, 100 mL of pen/strep and 110 mL of MEM non essential amino acids to 10 L of DMEM+glutamax-I. […] Caco-2 cells are seeded on HTS transwell 24-well plates purchased from Corning (3397). These polycarbonate membrane plates have a diameter of […] and pore size of 0.4 μm. The Caco-2 cells vial is thawed in a 37° C. water bath until only a small ice pellet is left. The vial is then transferred to the laminar flow hood and its exterior is extensively washed with 70% ethanol. The total content of the vial (2 mL) is transferred into a 50 mL tube containing 38 mL of complete DMEM. […] The seeding is done by the Hamilton star robotic station which is controlled with the Venus program. Each well will receive 600 μL of complete DMEM on its basolateral side and 200 μL of cells on its apical side. Each well receives 50 000 cells. The 24-well plates are then returned to an automated Liconic STX110 incubator set at 37° C., 5% CO2 and 100% humidity. The culture media for the cells is changed every two days except on weekends. These cells are maintained for a period of two weeks prior to the running of the permeability assay. Permeability assays are usually performed between day 15 and 18 after the initial seeding. […] Controls for the assay are mannitol for tight junction determination and Digoxin for efflux transporter (p-glycoprotein) expression. On the day of the assay, each compound is diluted to 10 μM in the buffer (apical for A to B). 6 μl of the 5 mM DMSO stock is added to 3 mL of the buffer in a 24-well 10 mL deep plate covered with a lid. The plate containing all the diluted compounds is spun for 10 min at 3000 rpm in a Rotanta 46 RSC centrifuge from Hettich to remove unsoluble compound. This dilution is used to add at the start of the incubation. Each compound is tested in duplicate. On the day of the assay, the culture media of the 24-well plate is removed and replaced with warm HBSS. The HBSS is then also removed and the Apical and Basolatral buffer are added to their respective side of the transwells. These steps are performed by the Hamilton Star robotic station. The plate is then placed in a 37° C. incubator and is left to equilibrate for 30 min. After 30 min of incubation a background sample (25 μL from each well) is taken from the receiver side (Basolateral for A to B), and replenished with warm buffer. These samples and all others afterwards are kept in a 96-well 1 mL plate. To start the assay, the donor compartment (apical for A to B) is emptied and replaced with new buffer containing the compound at 10 μM. Once the compounds are added, the plate is returned to the 37° C. incubator and the timer is started. In order to determine how much compound is actually added to each well, a 50 μL sample is taken from each compound dilution, this sample is refered to as the load. These steps and the following are performed by the Tecan Freedom EVO robotic station controlled via the Gemini software. For A-to-B Assay: Samples (190 μL) are taken from each basolateral (receiver) chamber at time points 0, 60, 120 and 180 min or at time points 0, 30, 60 and 90 min. From the 190 μL taken, 50 μL is transferred to the receiving plate and 140 μL is discarded.

[2] = test system: HIV-1; assay: C8166 HIV-1 Luciferase Assay (EC50); format: cell-based; conditions: Human immunodeficiency virus 1, C8166, 72 h
Description: C8166 HIV-1 Luciferase Assay (Ec50)
The assay used to measure inhibition of HIV replication is as described in WO 2004/050643, pages 73-75, incorporated herein by reference, with the following modifications:
Serial dilutions of HIV-1 inhibitors are prepared in complete media from DMSO stock solutions. Eleven serial dilutions of desired concentration are prepared in a 1 mL deep well titer plate (96 wells). The 12th well contains complete media with no inhibitor and serves as the positive control. All samples contain the same concentration of DMSO (<0.1% DMSO). Inhibitor is added, to triplicate wells, of a 96 well tissue culture treated clear view black microtiter plate (Corning Costar catalogue #3904). The total volume per well is 200 μL of media containing the cells and inhibitor. The last row is reserved for uninfected C8166 LTRIuc cells to serve as the background blank control and the first row is media alone.
Count C8166 LTRIuc cells and place in a minimal volume of complete RPMI 1640 in a tissue culture flask (ex. 30×10^6 cells in 10 mL media/25 cm^2 flask). Infect cells with HIV-1 at a moi of 0.005. Incubate cells for 1.5 h at 37° C. on a rotating rack in a 5% CO2 incubator. Resuspend cells in complete RPMI to give a final concentration of 25,000-cells/well. Add cells to wells of 96 well microtiter plate containing inhibitors. Add 25,000 uninfected C8166-LTRIuc cells/well in 200 μL complete RPMI to last row for background control. Incubate cells at 37° C. in 5% CO2 incubator for 3 days.
50 μL Steady Glo (luciferase substrate T112=5 hours Promega catalogue # E2520) is added to each well of the 96 well plate. The relative light units (RLU) of luciferase are determined using a luminescence plate reader. The calculated % inhibition values are used to determine EC50, slope factor (n) and maximum inhibition (Imax).

Compound | Papp A→B at 10 μM [1] [×10⁻⁶ cm/s] | EC50 [2] [nM]
CC[C@H]1C[C@@H](n2c(=O)nc(-c3cnn(C)c3)c3oc4ccc(-c5cn(C)cn5)cc4c32)CCO1 [Compound 1091] | 7.9 | 15.4
CC[C@H]1C[C@@H](n2c(=O)nc(-c3cnn(C)c3)c3oc4cc(C#N)c(-c5cn(C)cn5)cc4c32)CCO1 [Compound 1094] | 8.3 | 9.1
CC[C@H]1C[C@@H](n2c(=O)nc(-c3cnn(C)c3)c3oc4ccc(-c5cn(C)cn5)nc4c32)C[C@@H](C)O1 [Compound 1095] | 39.8 | 8.6
CC[C@H]1C[C@@H](n2c(=O)nc(-c3cnn(C)c3)c3oc4c(F)cc(-c5cn(C)cn5)cc4c32)CCO1 [Compound 1097] | 37.1 | 3.9
CC[C@H]1C[C@@H](n2c(=O)nc(-c3cnn(C)c3)c3oc4c(C#N)cc(-c5cn(C)cn5)cc4c32)CCO1 [Compound 1098] | 5.3 | 9.9
CC[C@H]1C[C@@H](n2c(=O)nc(-c3ccc(OC)nc3)c3oc4ccc(-c5cn(C)cn5)nc4c32)CCO1 [Compound 1100] | 29.3 | 6.2
CC[C@H]1C[C@@H](n2c(=O)nc(-c3ccc(OC)cn3)c3oc4ccc(-c5cn(C)cn5)nc4c32)CCO1 [Compound 1101] | 32 | 17
CC[C@H]1C[C@@H](n2c(=O)nc(-c3ccccn3)c3oc4ccc(-c5cn(C)cn5)nc4c32)CCO1 [Compound 1102] | 24.6 | 57
CC[C@H]1C[C@@H](n2c(=O)nc(-c3cnn(C)c3)c3oc4cnc(-c5cn(C)cn5)cc4c32)C[C@@H](C)O1 [Compound 1103] | 18.5 | 56
